Each structure is given as a SMILES string.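 48-hour exposure; five concentrations; linearly interpolated endpoints. GI50: concentration for 50% inhibition of growth. TGI is the concentration that stops growth completely.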

Test systems include NCI-H23 lung; SW-620 colon; A549 NSCLC; COLO 205 colon; LOX IMVI melanoma; HCC-2998 colon; SN12C renal; DU-145 prostate; MCF7 breast.
Common to all, as to experiment: NCI-60 cell line screen, 48 h

`Cc1ccccc1-n1c(C)nc(-c2ccccc2)cc1=O`: the TGI with NCI-H23 lung, in the assay with SW-620 colon, in the assay on A549 NSCLC, in the assay with COLO 205 colon, with LOX IMVI melanoma and in the assay on HCC-2998 colon was > 100 µM throughout. In addition, the TGI with SN12C renal is > 100 µM.
`O=C1c2nc3n(c2C(=O)c2c1nc1n2CCC1)CCC3`: the GI50 in the assay with NCI-H23 lung was 3.08 µM; with A549 NSCLC, 5.11 µM; in the assay on COLO 205 colon, 4.13 µM; with LOX IMVI melanoma it was 3.75 µM; in the assay on SN12C renal it was 9.48 µM. In addition, the TGI in the assay with NCI-H23 lung was found to be 7.09 µM; in the assay with SW-620 colon it was 17.2 µM; with A549 NSCLC, 18.1 µM; in the assay with COLO 205 colon, 18.5 µM; in the assay with LOX IMVI melanoma, 13.4 µM; in the assay with HCC-2998 colon, 21 µM. This compound registered a TGI in the assay on SN12C renal of 14.5 µM.
`COC(=O)C1=CC2OC1(C)CCC2=O` (configuration not stated): the TGI with NCI-H23 lung, in the assay on SW-620 colon, in the assay on A549 NSCLC, with COLO 205 colon, in the assay with LOX IMVI melanoma and in the assay on HCC-2998 colon was > 100 µM in each case. Also, the TGI in the assay on SN12C renal was > 100 µM.
Regarding `O=C(NO)c1ccc(O)c(O)c1`, the TGI in the assay with NCI-H23 lung, in the assay with SW-620 colon, with A549 NSCLC, in the assay with COLO 205 colon, in the assay on HCC-2998 colon and with SN12C renal was > 100 µM throughout.
Turning to `O=C(NS(=O)(=O)c1ccccc1)C(Cc1ccccc1)C(Cc1ccccc1)C(=O)NS(=O)(=O)c1ccccc1` (configuration not stated), the TGI with NCI-H23 lung, in the assay on SW-620 colon, with A549 NSCLC, in the assay with COLO 205 colon, with LOX IMVI melanoma and in the assay with HCC-2998 colon was > 100 µM in each case. The TGI in the assay with SN12C renal was > 100 µM.
Consider `CCCCCCC(/C=N/O)C(C)(O)CCC` (configuration not stated), for which the TGI in the assay on NCI-H23 lung, in the assay on SW-620 colon, with A549 NSCLC, with COLO 205 colon, with LOX IMVI melanoma and in the assay with HCC-2998 colon was > 100 µM throughout. In addition, the TGI with SN12C renal was > 100 µM.
On to `Cc1cccc2nc3cccc(C(=O)NCCN(C)C)c3nc12`, for which the TGI in the assay on NCI-H23 lung stood at 3.47 µM; in the assay with SW-620 colon it was 11.2 µM; in the assay with A549 NSCLC, 15.3 µM; with COLO 205 colon, 3.14 µM; with LOX IMVI melanoma, 11.6 µM; with HCC-2998 colon, 2.27 µM. In the assay on SN12C renal, this compound showed a TGI of 3.15 µM.
Take `COC1=C2CC(C)CC(OC)C(O)C(C)/C=C(\C)C(OC(N)=O)C(OC)/C=C\C=C(/C)C(=O)NC(=C(/C=N/N3CCCCC3)C1=O)C2=O` (configuration not stated): the TGI worked out at 35.3 µM in the assay with NCI-H23 lung; 8.7 µM in the assay with SW-620 colon; 46.7 µM in the assay on A549 NSCLC; 32.9 µM in the assay on DU-145 prostate; 8.25 µM with COLO 205 colon; 22.3 µM in the assay on LOX IMVI melanoma. Also, the TGI in the assay with HCC-2998 colon was found to be 18.9 µM; in the assay on SN12C renal it was 15.5 µM.
`COC(=O)CCC(=O)NC1C2CC3CC(C2)CC1C3` (configuration not stated): the TGI with NCI-H23 lung, in the assay with SW-620 colon, in the assay on A549 NSCLC, in the assay on COLO 205 colon, in the assay with LOX IMVI melanoma and with HCC-2998 colon was > 100 µM in each case. Moreover, in the assay with SN12C renal, the TGI was > 100 µM.
Turning to `C[C@H]1C(=O)CC[C@]2(C)CCC(C(C)(C)O)CC12O` (some centres not stated), the TGI in the assay on NCI-H23 lung, with SW-620 colon, with A549 NSCLC, in the assay with COLO 205 colon, in the assay with LOX IMVI melanoma and with HCC-2998 colon was > 100 µM throughout. Moreover, the TGI with SN12C renal was > 100 µM.
Consider `O=[N+]([O-])c1ccc(Cl)cc1C1SCc2nc3ccccc3n21` (configuration not stated), for which the TGI in the assay with NCI-H23 lung, in the assay with SW-620 colon, in the assay with A549 NSCLC, in the assay with COLO 205 colon, in the assay on HCC-2998 colon and in the assay on SN12C renal was > 100 µM throughout.
Consider `COc1ccc2c(c1OC)C(=O)c1cnccc1C2=O`, for which the TGI in the assay on NCI-H23 lung, with SW-620 colon, in the assay with A549 NSCLC, in the assay on COLO 205 colon, in the assay on LOX IMVI melanoma and with HCC-2998 colon was > 100 µM throughout. Also, the TGI with SN12C renal is > 100 µM.
Consider `CCC(Oc1ccc(OC)c2ccccc(=O)c12)C(=O)O` (configuration not stated), for which the TGI in the assay with NCI-H23 lung, in the assay on SW-620 colon, in the assay on A549 NSCLC, with COLO 205 colon, in the assay on LOX IMVI melanoma and in the assay with HCC-2998 colon was > 100 µM each time. Moreover, the TGI with SN12C renal was > 100 µM.
As to `O=C(/C=C1/Nc2ccc([N+](=O)[O-])cc2NC1O)c1cccc([N+](=O)[O-])c1` (configuration not stated), the TGI in the assay with NCI-H23 lung, in the assay on SW-620 colon, with A549 NSCLC, in the assay on COLO 205 colon, with LOX IMVI melanoma and in the assay with HCC-2998 colon was > 100 µM each time. In the assay on SN12C renal, the TGI is > 100 µM.
In the case of `CN1CC(=O)N(C)c2nc[nH]c2C1=O`, the TGI with NCI-H23 lung, in the assay with SW-620 colon, with A549 NSCLC, in the assay on COLO 205 colon, in the assay with LOX IMVI melanoma and in the assay on HCC-2998 colon was > 100 µM in each case. Moreover, the TGI in the assay on SN12C renal was > 100 µM.
For `O=C1NC(=O)C2C1N(Cc1ccccc1)C(=O)N2Cc1ccccc1` (configuration not stated), the TGI in the assay on NCI-H23 lung, in the assay on SW-620 colon, with A549 NSCLC, with COLO 205 colon, with LOX IMVI melanoma and in the assay with HCC-2998 colon was > 100 µM throughout. Besides, in the assay with SN12C renal, the TGI is > 100 µM.
As to `COc1ccc(Nc2c3ccccc3nc3[nH]c4ccccc4c23)cc1`, the GI50 was > 50 µM in the assay on NCI-H23 lung; 9.89 µM with SW-620 colon; 8.49 µM in the assay on A549 NSCLC; 6.47 µM in the assay on DU-145 prostate; 17.8 µM in the assay on COLO 205 colon; 6.44 µM with LOX IMVI melanoma. Further, the results for the GI50 in the assay with SN12C renal and in the assay on MCF7 breast were 18.5 µM and 7.95 µM, respectively. Further, the TGI in the assay on NCI-H23 lung is > 50 µM; with SW-620 colon, > 50 µM; in the assay on A549 NSCLC it was > 50 µM; with DU-145 prostate, 33.9 µM; in the assay on COLO 205 colon it was > 50 µM; in the assay on LOX IMVI melanoma, 29.5 µM. Besides, the TGI in the assay with SN12C renal and in the assay with MCF7 breast was > 50 µM each time.
